Reference: ChEMBL document CHEMBL3507680, “University of Dundee, Gates Library screen for HepG2 cell viability”

Experiment: Human HepG2 cell viability assay in 384 well format
Assay type: toxicity, cell-based
Set-up: dose 125 nL, time 70.5 hour; concentration not given beside the values
Conditions: HepG2 cells, read-out: Inhibition
With `O=C(NCCN1CCCC(CO)C1)c1ccc2sccc2c1` (configuration not stated) the cytotoxicity at 70.5 h was -6.22%. For `O=C(Cc1cccnc1)N1CCC2(CC1)CCN(C1CCOC1)C2` (configuration not stated), the cytotoxicity at 70.5 h was 8.42%. `CCc1cnc(N2CCc3ncnc(N4CCN(C)CC4)c3CC2)nc1` showed a cytotoxicity at 70.5 h of -3.37%. `CC(=O)N1CCCCCC1C1CCN(Cc2nc(C(C)C)no2)CC1` (configuration not stated) gave a cytotoxicity at 70.5 h of 0.62%. In the case of `CN(CCCC#N)C1CCCN(Cc2noc(C3CC3)n2)C1` (configuration not stated), the cytotoxicity at 70.5 h is reported as 9.15%. With `CS(=O)(=O)c1ccccc1NC(=O)N[C@@H]1c2ccccc2C[C@@H]1O` the cytotoxicity at 70.5 h was 12.9%. For `CN(C)CCN1CCOCC2(CCN(Cc3ccc[nH]3)CC2)C1`, the cytotoxicity at 70.5 h was 0.665%. With `O=C(NCc1csc2ccc(Cl)cc12)c1cc2n(n1)CCNC2` the cytotoxicity at 70.5 h was 3.64%. `CC(C)N(CCO)C(=O)C1CCC(=O)N(CCc2cccc(F)c2)C1` (configuration not stated) showed a cytotoxicity at 70.5 h of -10%. `CCCn1ccnc1CN1CC[C@@H](NC(=O)c2cccnc2)[C@H](O)C1` showed a cytotoxicity at 70.5 h of -16.3%. In the case of `Cc1cccc(-c2nc(C)nn2CC(=O)NC(C)C2CC2)c1` (configuration not stated), the cytotoxicity at 70.5 h is reported as -5.76%. Work on `CC(=O)c1cccc(OCc2cc(C(=O)N3CCCCO3)n[nH]2)c1` yielded a cytotoxicity at 70.5 h of -15.4%. With `CCC(CC)NC(=O)Cn1nc(C)nc1-c1ccccc1` the cytotoxicity at 70.5 h was -6.22%. With `O=C(C1CCCC1)N1CC2(CCNC2)OCc2ccccc21` (configuration not stated) the cytotoxicity at 70.5 h was -9.78%. Compound `CC(C)COCCCNC(=O)NC(C)c1ccc(-n2cncn2)cc1` (configuration not stated) has a cytotoxicity at 70.5 h of -3.59%. With `CCc1nc(C2CCCN2Cc2nccn2CC(F)(F)F)no1` (configuration not stated) the cytotoxicity at 70.5 h was 1.64%. In the case of `Cc1ccc(S(C)(=O)=O)cc1NCC(=O)NCCC1=CCCCC1`, the cytotoxicity at 70.5 h is reported as -9.03%. With `CC(NC(=O)CCC(C)(C)C)C(=O)Nc1ccc(-n2cncn2)cc1` (configuration not stated) the cytotoxicity at 70.5 h was -24.9%. For `O=C(c1ccncc1F)N1CCc2ncnc(C3CC3)c2CC1`, the cytotoxicity at 70.5 h was -1.77%. For `O=C(CN1CCS(=O)(=O)CC1)NCc1cccc(Br)c1`, the cytotoxicity at 70.5 h was -2.1%. `COc1cc(CO)ccc1OCc1nc(C2CC2)no1` gave a cytotoxicity at 70.5 h of -7.52%. In the case of `CNC(=O)C1(CCCc2cnccn2)CCN1Cc1ccc(C)cc1` (configuration not stated), the cytotoxicity at 70.5 h is reported as -5.64%. `CC(CNC(=O)c1ccc(F)cc1I)N1CCCC1` (configuration not stated) gave a cytotoxicity at 70.5 h of 22%. In the case of `CC(C)c1cc(=O)[nH]c(-c2ccccc2CN2CCC(C)(C)C2)n1`, the cytotoxicity at 70.5 h is reported as 5.1%. Work on `CC(C)n1c(=O)nc2n1C(=O)N(c1ccc(Cl)cc1)C2` yielded a cytotoxicity at 70.5 h of -21.8%. Work on `CC(=O)Nc1ccc2nc(CN(C)Cc3snnc3C)ccc2c1` yielded a cytotoxicity at 70.5 h of -9.42%. With `CN(Cc1cnn(C)c1)CC(O)c1ccc2c(c1)OCO2` (configuration not stated) the cytotoxicity at 70.5 h was -2.83%. In the case of `CC(=O)N1CC[C@@H]2O[C@@H](COCc3csc(C)n3)CC[C@@H]21`, the cytotoxicity at 70.5 h is reported as 12%. Work on `CN(C)C(=O)COc1ccccc1CNC1CCc2ncnn2C1` (configuration not stated) yielded a cytotoxicity at 70.5 h of -6.71%. Work on `COc1ccc(NC(=O)NC(C)c2nc[nH]n2)cc1` (configuration not stated) yielded a cytotoxicity at 70.5 h of -0.0192%. `Cc1ccc(C(=O)N2CCC3(CCN3c3ncccn3)C2)cn1` (configuration not stated) gave a cytotoxicity at 70.5 h of -1.31%. With `CC(C)NC(=O)N1CC[C@H]2N(C)CC[C@@]2(C(=O)Nc2cccnc2)CC1` the cytotoxicity at 70.5 h was -10.8%. `CC(C)(C)c1ncc2c(n1)CN(C(=O)c1ccc(-n3cnnn3)cc1)C2` gave a cytotoxicity at 70.5 h of -3.62%. `CNc1nc(CNC(=O)Nc2ccc([S+](C)[O-])c(F)c2)cs1` (configuration not stated) showed a cytotoxicity at 70.5 h of -2.75%. `CN(C)CCN1CCCC12CCCN(Cc1ccco1)C2` (configuration not stated) gave a cytotoxicity at 70.5 h of 7.41%. Compound `CC(C)(C)c1nc(CN(CCO)Cc2cc(Br)ccc2F)no1` has a cytotoxicity at 70.5 h of -3.27%. For `O=C(NCCn1ccc(-c2ccncc2)n1)C1CC1`, the cytotoxicity at 70.5 h was -12%. Compound `Cc1cnc2cc(C3CCN(C(=O)c4ccncc4)CC3)[nH]c2n1` has a cytotoxicity at 70.5 h of -12.8%. `O=C(O)c1ccc(=O)n(CC(c2ccc(Cl)cc2)N2CCOCC2)c1` (configuration not stated) gave a cytotoxicity at 70.5 h of -6.42%. `Cn1nc2c(cc1=O)CN(Cc1coc(-c3ccccc3)n1)CC2` gave a cytotoxicity at 70.5 h of 0.822%. With `Cc1ccc(N2CC[C@H]3OCC[C@@]3(C(=O)N(C)C)C2)nn1` the cytotoxicity at 70.5 h was -8.34%. For `O=C(C1CCC1)N1CCN(Cc2ccsc2)[C@H]2CS(=O)(=O)C[C@H]21`, the cytotoxicity at 70.5 h was -0.678%. With `CCOCC1CN(Cc2ccncc2)Cc2nn(C)cc21` (configuration not stated) the cytotoxicity at 70.5 h was -7.15%. Compound `CNc1nc(CNC(=O)Nc2ccc(OC(C)C)cc2F)cs1` has a cytotoxicity at 70.5 h of -5.89%. Work on `Cc1noc(C)c1CCC(=O)N1CCCN(C)CC1` yielded a cytotoxicity at 70.5 h of -3.68%. Compound `CCN(CC)CCC(=O)NCc1cc2n(n1)CCN(C(=O)N(C)C)C2` has a cytotoxicity at 70.5 h of -11.8%. In the case of `COc1ccccc1CNC(=O)N1CCN(Cc2cc(C)on2)CC1`, the cytotoxicity at 70.5 h is reported as -2.55%. `COc1ccc(Cl)cc1CC(=O)N1CCN(CCO)CC1` gave a cytotoxicity at 70.5 h of 12.5%. Work on `Cc1cncc(C2CCCN(Cc3ccncc3)C2)n1` (configuration not stated) yielded a cytotoxicity at 70.5 h of 13.6%. For `CCOCCn1c(=O)[nH]c2cc(C(=O)N(C)Cc3cc(C)[nH]n3)ccc21`, the cytotoxicity at 70.5 h was -6.23%. `Cn1ccnc1CN1C[C@@H]2[C@@H](C1)OCC(=O)N2CC1CCCC1` showed a cytotoxicity at 70.5 h of -21.4%. With `COc1ccc(CNCc2c(C(C)C)nn(C)c2OC)cn1` the cytotoxicity at 70.5 h was -0.773%. With `CCc1nnc(NC(=O)N(CCOC)Cc2ccc(C)o2)s1` the cytotoxicity at 70.5 h was 14.4%. Compound `CC(=O)c1ccc(OCC(=O)NC(C)CCc2ccco2)cc1` (configuration not stated) has a cytotoxicity at 70.5 h of -18.1%. Compound `O=C(CN1CCCC(Cn2cncn2)C1)NCCC1=CCCCC1` (configuration not stated) has a cytotoxicity at 70.5 h of 7.12%. In the case of `CCC[C@H]1CN(CCS(C)(=O)=O)C[C@@H]1NC(=O)c1cccnn1`, the cytotoxicity at 70.5 h is reported as 7.31%. `COCCOCC(=O)N(C)Cc1ccc(OCc2cccs2)cc1` showed a cytotoxicity at 70.5 h of -6.68%.
